The text below walks through data of patent US20110053947A1, “Arylchalcogenoarylalkyl-substituted imidazolidine-2,4-diones, process for preparation thereof, medicaments comprising these compounds and use thereof” (SANOFI-AVENTIS, priority 2008, published 2011).

SMILES strings stand for the structures. Counter-ions that a name gives are not always drawn.

For this test, the target named is T1, cannabinoid 1 receptor (hCB1R) (Homo sapiens, UniProt P21554).
T1 construct: expressed in transfected cells; host or cells: HEK293
T1 sequence (P21554 whole entry): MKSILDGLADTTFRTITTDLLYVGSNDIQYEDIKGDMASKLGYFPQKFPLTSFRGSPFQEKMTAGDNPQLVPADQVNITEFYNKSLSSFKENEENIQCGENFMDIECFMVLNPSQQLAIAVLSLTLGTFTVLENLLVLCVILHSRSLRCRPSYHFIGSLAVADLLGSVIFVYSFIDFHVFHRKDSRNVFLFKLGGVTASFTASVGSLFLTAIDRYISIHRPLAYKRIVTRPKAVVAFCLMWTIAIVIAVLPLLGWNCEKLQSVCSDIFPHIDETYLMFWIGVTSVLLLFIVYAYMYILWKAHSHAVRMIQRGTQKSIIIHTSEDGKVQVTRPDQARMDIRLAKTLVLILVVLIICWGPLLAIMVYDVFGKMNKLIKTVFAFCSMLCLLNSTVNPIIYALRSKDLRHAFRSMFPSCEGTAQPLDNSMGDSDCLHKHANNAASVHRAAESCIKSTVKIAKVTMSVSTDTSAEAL
Nature of the test: In vitro functional assay with recombinant cells (FLIPR), CB1. The test is classed as cell-based. The following applies: recombinant HEK293 cells expressing CB1 and G-protein; intracellular Ca2+ change after reference agonist, 20 min preincubation; read-out: hCB1R: FLIPR; IC50. Here is the method: In vitro functional assays with recombinant cells:
Function-testing assays were performed by means of the FLIPR technique (“Fluorometric Imaging Plate Reader”, Molecular Devices Corp.).
To this end, ligand-induced changes in the intracellular concentration of Ca^2+ in recombinant HEK293 cells, which expressed both a cannabinoid receptor (CB1 or CB2) and G-protein Galphal6, were determined. For the studies, cells were sown into 96-well microtiter plates (60 000 cells/well) and left to grow overnight. The medium was removed and the cells were incubated in buffer which contained the fluorescent dye Fluo-4. After this loading with dye, the cells were washed, test substance was added dissolved in buffer, the mixture was incubated for 20 minutes, a known cannabinoid receptor agonist as a reference agonist was added in buffer and, finally, the changes in the intracellular Ca^2+ concentration were measured in the FLIPR unit.
Results were presented as the percentage change relative to the control (0%: analogous experiment without test substance and without reference agonist, i.e. only with buffer; 100%: analogous experiment without test substance, but with reference agonist in excess), and used to calculate dose/action curves, and IC50 values were determined.
The values of the functional assay compared to the cannabinoid 1 receptor including illustrative selectivities compared to the cannabinoid 2 receptor can be taken from table 1 which follows.
Regarding `CC1(C)C(=O)N(c2ccc(C#N)c(C3CC3)c2)C(=O)N1Cc1ccc(F)cc1NC(=O)Nc1ccc(S(N)(=O)=O)cc1` [Example 28, 4-(3-{2-[3-(4-Cyano-3-cyclopropylphenyl)-5,5-dimethyl-2,4-dioxoimidazolidin-1-ylmethyl]-5-fluorophenyl}ureido)benzenesulfonamide], the IC50 was 9 nM.
Under `COc1ccc(CN2C(=O)N(c3ccc(F)c(C(F)(F)F)c3)C(=O)C2(C)C)c(NC(=O)Nc2ccc(S(N)(=O)=O)cc2)c1` [Example 70, 4-(3-{2-[3-(4-fluoro-3-trifluoromethylphenyl)-5,5-dimethyl-2,4-dioxoimidazolidin-1-ylmethyl]-5-methoxyphenyl}ureido)benzenesulfonamide] stands 14 nM; under `CC1(C)C(=O)N(c2ccc(F)c(C(F)(F)F)c2)C(=O)N1Cc1ccc(F)cc1NC(=O)Nc1ccc(C(=O)O)cc1` [Example 60, 4-(3-{5-fluoro-2-[3-(4-fluoro-3-trifluoromethylphenyl)-5,5-dimethyl-2,4-dioxoimidazolidin-1-ylmethyl]phenyl}-ureido)benzoic acid], 53 nM.
With `CC1(C)C(=O)N(c2ccc(C#N)c(C(F)(F)F)c2)C(=O)N1Cc1ccc(F)cc1NC(=O)Nc1ccc(S(N)(=O)=O)cc1` [Example 22, 4-(3-{2-[3-(4-Cyano-3-trifluoromethylphenyl)-5,5-dimethyl-2,4-dioxoimidazolidin-1-ylmethyl]-5-fluorophenyl}ureido)benzenesulfonamide], the IC50 is 9 nM.
`CC1(C)C(=O)N(c2ccc(C#N)c(C3CC3)c2)C(=O)N1Cc1ccc(F)cc1NC(=O)Nc1ccc(S(C)(=O)=O)cc1` [Example 30, 1-{2-[3-(4-Cyano-3-cyclopropylphenyl)-5,5-dimethyl-2,4-dioxoimidazolidin-1-ylmethyl]-5-fluorophenyl}-3-(4-methanesulfonylphenyl)urea]: the IC50 came to 11 nM.
Take `CC1(C)C(=O)N(c2ccc(F)c(C(F)(F)F)c2)C(=O)N1Cc1ccc(F)cc1NC(=O)Nc1ccc(C(=O)NS(=O)(=O)Cc2ccccc2)cc1` [Example 64, N-[4-(3-{5-fluoro-2-[3-(4-fluoro-3-trifluoromethylphenyl)-5,5-dimethyl-2,4-dioxoimidazolidin-1-ylmethyl]phenyl}ureido)benzoyl]-C-phenylmethanesulfonamide]: the IC50 is 39 nM.
Regarding `CC1(C)C(=O)N(c2ccc(C#N)c(C(F)(F)F)c2)C(=O)N1Cc1ccccc1NC(=O)Nc1ccc(C(N)=O)cc1` [Example 16, 4-(3-{2-[3-(4-Cyano-3-trifluoromethylphenyl)-5,5-dimethyl-2,4-dioxoimidazolidin-1-ylmethyl]phenyl}ureido)benzamide], the IC50 amounted to 12 nM.
As to `CC1(C)C(=O)N(c2ccc(F)c(C(F)(F)F)c2)C(=O)N1Cc1ccc(F)cc1NC(=O)Nc1ccc(S(C)(=O)=O)cc1` [Example 27, 1-{5-Fluoro-2-[3-(4-fluoro-3-trifluoromethylphenyl)-5,5-dimethyl-2,4-dioxoimidazolidin-1-ylmethyl]phenyl}-3-(4-methanesulfonylphenyl)urea], the IC50 was 13 nM.
With `COc1cc(CN2C(=O)N(c3ccc(F)c(C(F)(F)F)c3)C(=O)C2(C)C)c(NC(=O)Nc2ccc(S(N)(=O)=O)cc2)cc1OC` [Example 68, 4-(3-{2-[3-(4-fluoro-3-trifluoromethylphenyl)-5,5-dimethyl-2,4-dioxoimidazolidin-1-ylmethyl]-4,5-dimethoxyphenyl}ureido)benzenesulfonamide], the IC50 stood at 39 nM.
The same measure for `CC1(C)C(=O)N(c2ccc(F)c(C(F)(F)F)c2)C(=O)N1Cc1ccc(F)cc1NC(=O)Nc1ccc(NS(C)(=O)=O)cc1` [Example 31, N-[4-(3-{5-Fluoro-2-[3-(4-fluoro-3-trifluoromethylphenyl)-5,5-dimethyl-2,4-dioxoimidazolidin-1-ylmethyl]phenyl}ureido)phenyl]methanesulfonamide]: 32 nM; for `CC1(C)C(=O)N(c2ccc(F)c(C(F)(F)F)c2)C(=O)N1Cc1ccc(F)cc1NC(=O)Nc1ccc(C(=O)NS(=O)(=O)C(F)(F)F)cc1` [Example 62, C,C,C-trifluoro-N-[4-(3-{5-fluoro-2-[3-(4-fluoro-3-trifluoromethylphenyl)-5,5-dimethyl-2,4-dioxoimidazolidin-1-ylmethyl]phenyl}ureido)benzoyl]methanesulfonamide]: 46 nM; for `CSc1ccc(NC(=O)Nc2cc(F)ccc2CN2C(=O)N(c3ccc(C#N)c(C4CC4)c3)C(=O)C2(C)C)cc1` [Example 30.1, 1-{2-[3-(4-cyano-3-cyclopropylphenyl)-5,5-dimethyl-2,4-dioxoimidazolidin-1-ylmethyl]-5-fluorophenyl}-3-(4-methylsulfanylphenyl)urea]: 12 nM.
As to `CC1(C)C(=O)N(c2ccc(C#N)c(C(F)(F)F)c2)C(=O)N1Cc1ccc(F)cc1NC(=O)Nc1ccc(Cl)nc1` [Example 20, 1-(6-chloropyridin-3-yl)-3-{2-[3-(4-cyano-3-trifluoromethylphenyl)-5,5-dimethyl-2,4-dioxoimidazolidin-1-ylmethyl]-5-fluorophenyl}urea], the IC50 stood at 16 nM.
Turning to `CC1(C)C(=O)N(c2ccc(F)c(C(F)(F)F)c2)C(=O)N1Cc1ccc(Cl)cc1NC(=O)Nc1ccc(S(N)(=O)=O)cc1` [Example 69, 4-(3-{5-chloro-2-[3-(4-fluoro-3-trifluoromethylphenyl)-5,5-dimethyl-2,4-dioxoimidazolidin-1-ylmethyl]phenyl}ureido)benzenesulfonamide], the IC50 was found to be 11 nM.
`CC1(C)C(=O)N(c2ccc(C#N)c(C3CC3)c2)C(=O)N1Cc1cc(Cl)ccc1NC(=O)Nc1ccc(S(C)(=O)=O)cc1` [Example 67, 1-{4-chloro-2-[3-(4-cyano-3-cyclopropylphenyl)-5,5-dimethyl-2,4-dioxoimidazolidin-1-ylmethyl]phenyl}-3-(4-methanesulfonylphenyl)urea]: the IC50 stood at 6 nM.
Turning to `CC1(C)C(=O)N(c2ccc(F)c(C(F)(F)F)c2)C(=O)N1Cc1ccc(F)cc1NC(=O)Nc1ccc(C(=O)NS(C)(=O)=O)cc1` [Example 61, N-[4-(3-{5-Fluoro-2-[3-(4-fluoro-3-trifluoromethylphenyl)-5,5-dimethyl-2,4-dioxoimidazolidin-1-ylmethyl]phenyl}ureido)benzoyl]methanesulfonamide], the IC50 is 16 nM.
Under `CC1(C)C(=O)N(c2ccc(C#N)c(C3CC3)c2)C(=O)N1Cc1ccc(F)cc1NC(=O)Nc1ccc(S(=O)(=O)CC(=O)O)cc1` [Example 47, [4-(3-{2-[3-(4-Cyano-3-cyclopropylphenyl)-5,5-dimethyl-2,4-dioxoimidazolidin-1-ylmethyl]-5-fluorophenyl}ureido)benzenesulfonyl]acetic acid] stands 25 nM; under `CC1(C)C(=O)N(c2ccc(C#N)c(C(F)(F)F)c2)C(=O)N1Cc1ccc(F)cc1NC(=O)Nc1ccc(S(C)(=O)=O)cc1` [Example 19, 1-{2-[3-(4-Cyano-3-trifluoromethylphenyl)-5,5-dimethyl-2,4-dioxoimidazolidin-1-ylmethyl]-5-fluorophenyl}-3-(4-methane-sulfonylphenyl)urea], 9 nM; under `COC(=O)c1ccc(NC(=O)Nc2cc(F)ccc2CN2C(=O)N(c3ccc(C#N)c(C(F)(F)F)c3)C(=O)C2(C)C)cc1` [Example 17, Methyl 4-(3-{2-[3-(4-cyano-3-trifluoromethylphenyl)-5,5-dimethyl-2,4-dioxoimidazolidin-1-ylmethyl]-5-fluorophenyl}ureido)benzoate], 10 nM.
On to `CC1(C)C(=O)N(c2ccc(F)c(C(F)(F)F)c2)C(=O)N1Cc1ccc(F)cc1NC(=O)Nc1ccc(S(=O)(=O)O)cc1` [Example 26, Sodium salt of 4-(3-{5-fluoro-2-[3-(4-fluoro-3-trifluoromethylphenyl)-5,5-dimethyl-2,4-dioxoimidazolidin-1-ylmethyl]phenyl}ureido)benzenesulfonic acid], for which the IC50 was 66 nM.
Regarding `CC1(C)C(=O)N(c2ccc(C#N)c(C(F)(F)F)c2)C(=O)N1Cc1ccc(F)cc1NC(=O)Nc1ccc(SCC(=O)O)cc1` [Example 50, [4-(3-{2-[3-(4-Cyano-3-trifluoromethylphenyl)-5,5-dimethyl-2,4-dioxoimidazolidin-1-ylmethyl]-5-fluorophenyl}ureido)phenylsulfanyl]acetic acid], the IC50 is 13 nM.
On to `CC1(C)C(=O)N(c2ccc(C#N)c(C3CC3)c2)C(=O)N1Cc1ccc(F)cc1NC(=O)Nc1ccc(S(=O)(=O)O)cc1` [Example 29, 4-(3-{2-[3-(4-cyano-3-cyclopropylphenyl)-5,5-dimethyl-2,4-dioxo-imidazolidin-1-ylmethyl]-5-fluorophenyl}ureido)benzenesulfonic acid], for which the IC50 is 69 nM.
With `CC1(C)C(=O)N(c2ccc(F)c(C(F)(F)F)c2)C(=O)N1Cc1ccc(F)cc1NC(=O)Nc1ccc(S(=O)(=O)O)cc1` [Example 25, 4-(3-{5-fluoro-2-[3-(4-fluoro-3-trifluoromethylphenyl)-5,5-dimethyl-2,4-dioxoimidazolidin-1-ylmethyl]phenyl}ureido)benzenesulfonic acid], the IC50 worked out at 58 nM.
